US11970463B2, “Compounds and their use” (ASTRAZENECA AB, priority 2021, dated 2024)
≈ marks a conversion by molar mass, not a printed value. Where two headings read alike, the source gives them in different places.

What was measured:
Human NLRP3 [1] = target: T1, Human NLRP3 (Homo sapiens (Human), UniProt Q96P20)
[2] = Solubility (Test F), McIlvaine buffer pH 6.5; format: physicochemical; settings: McIlvaine buffer pH 6.5, 25° C., 24 to 72 h, theoretical maximum 200 μM; for solubility: disodium hydrogenphosphate-citric acid (McIlvaine) buffer, 25 °C, pH 6.5, aqueous buffer, thermodynamic from solid
Human NLRP3 [3] = target: T1, Human NLRP3; experiment: Human NLRP3 speck formation assay (Test A), nigericin triggered ASC-speck formation in ASC-GFP reporter monocytes
Human NLRP3 [4] = target: T1, Human NLRP3; remark: listed apart in the source
Solubility (Test E) = format: physicochemical
hERG = hERG (Homo sapiens (Human), UniProt Q12809); experiment: hERG assay (Test D), SyncroPatch 384PE patch clamp, hERG-expressing CHO cells; format: cell-based; settings: rt
Chain of hERG (Q12809 whole entry): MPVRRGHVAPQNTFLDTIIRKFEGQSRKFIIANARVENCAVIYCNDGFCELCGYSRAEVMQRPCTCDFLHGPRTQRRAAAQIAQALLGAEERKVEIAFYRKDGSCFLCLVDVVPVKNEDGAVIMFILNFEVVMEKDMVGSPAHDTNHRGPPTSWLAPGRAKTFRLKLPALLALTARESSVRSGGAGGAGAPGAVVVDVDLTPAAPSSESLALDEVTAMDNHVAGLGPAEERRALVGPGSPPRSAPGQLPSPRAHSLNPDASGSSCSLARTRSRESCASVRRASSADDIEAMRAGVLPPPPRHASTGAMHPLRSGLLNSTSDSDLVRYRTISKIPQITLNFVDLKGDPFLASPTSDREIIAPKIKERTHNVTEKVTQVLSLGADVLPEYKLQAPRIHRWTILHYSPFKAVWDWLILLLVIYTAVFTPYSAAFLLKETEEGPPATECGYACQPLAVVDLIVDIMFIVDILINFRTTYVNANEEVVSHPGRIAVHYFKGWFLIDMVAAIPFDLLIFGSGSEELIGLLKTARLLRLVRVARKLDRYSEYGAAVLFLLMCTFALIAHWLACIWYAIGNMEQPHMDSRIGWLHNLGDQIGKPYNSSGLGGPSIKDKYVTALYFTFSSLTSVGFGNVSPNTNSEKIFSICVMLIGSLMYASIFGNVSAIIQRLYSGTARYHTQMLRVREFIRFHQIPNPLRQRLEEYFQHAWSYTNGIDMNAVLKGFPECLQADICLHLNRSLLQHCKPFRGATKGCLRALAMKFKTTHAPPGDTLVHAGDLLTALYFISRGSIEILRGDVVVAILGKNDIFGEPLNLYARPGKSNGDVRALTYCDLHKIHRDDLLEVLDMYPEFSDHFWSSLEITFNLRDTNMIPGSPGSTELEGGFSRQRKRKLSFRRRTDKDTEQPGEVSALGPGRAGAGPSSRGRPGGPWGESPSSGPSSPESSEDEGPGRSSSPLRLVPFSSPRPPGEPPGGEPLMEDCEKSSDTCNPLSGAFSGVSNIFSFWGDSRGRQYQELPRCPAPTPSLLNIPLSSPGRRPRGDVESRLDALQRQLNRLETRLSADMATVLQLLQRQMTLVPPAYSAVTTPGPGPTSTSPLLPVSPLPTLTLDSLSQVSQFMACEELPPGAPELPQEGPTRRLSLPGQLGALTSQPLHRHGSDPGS

[5] = Test C IC50, IL-1β release, THP-1 cells, LPS 2 μg/mL 24 h, BzATP 1 mM

T1 sequence (Q96P20 whole entry): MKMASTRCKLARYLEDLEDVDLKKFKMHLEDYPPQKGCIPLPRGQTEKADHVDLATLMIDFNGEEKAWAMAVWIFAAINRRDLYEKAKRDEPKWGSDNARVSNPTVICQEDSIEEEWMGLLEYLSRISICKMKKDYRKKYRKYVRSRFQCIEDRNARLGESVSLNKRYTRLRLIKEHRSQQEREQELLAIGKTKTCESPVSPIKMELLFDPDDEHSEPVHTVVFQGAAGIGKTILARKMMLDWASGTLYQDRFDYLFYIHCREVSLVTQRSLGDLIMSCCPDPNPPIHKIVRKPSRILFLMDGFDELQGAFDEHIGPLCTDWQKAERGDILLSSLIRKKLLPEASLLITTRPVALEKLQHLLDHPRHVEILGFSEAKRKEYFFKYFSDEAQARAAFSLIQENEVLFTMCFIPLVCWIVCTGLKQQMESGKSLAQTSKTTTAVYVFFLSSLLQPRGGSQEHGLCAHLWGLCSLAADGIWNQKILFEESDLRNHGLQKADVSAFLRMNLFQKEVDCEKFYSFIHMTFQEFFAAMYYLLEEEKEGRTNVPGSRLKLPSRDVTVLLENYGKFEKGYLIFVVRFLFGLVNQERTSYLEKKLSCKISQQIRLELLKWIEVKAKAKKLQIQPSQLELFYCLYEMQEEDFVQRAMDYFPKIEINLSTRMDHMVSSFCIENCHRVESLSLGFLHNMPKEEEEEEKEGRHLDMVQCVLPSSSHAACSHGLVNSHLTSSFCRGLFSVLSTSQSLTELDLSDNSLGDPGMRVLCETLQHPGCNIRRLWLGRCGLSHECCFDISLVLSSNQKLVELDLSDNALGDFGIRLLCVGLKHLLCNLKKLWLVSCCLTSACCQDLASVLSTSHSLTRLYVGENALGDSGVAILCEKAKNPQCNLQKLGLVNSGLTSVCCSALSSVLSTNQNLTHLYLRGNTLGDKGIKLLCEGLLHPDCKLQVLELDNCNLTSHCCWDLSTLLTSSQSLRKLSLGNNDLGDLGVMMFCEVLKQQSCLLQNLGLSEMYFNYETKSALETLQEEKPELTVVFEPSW

| IC50 (Human NLRP3 [1]; [5]) [nM] | Test F Solubility [2] [µg/mL] | EC50 (Human NLRP3 [3]) [nM] | IC50 (Human NLRP3 [4]) [nM] | solubility (Solubility (Test E)) [µM] | solubility [2] [µg/mL] | IC50 (Human NLRP3 [1]) [nM] | SMILES | IC50 (hERG) [nM] |
| --- | --- | --- | --- | --- | --- | --- | --- | --- |
| 69 | 10.9 | 212 | 71 |  |  |  | Oc1cc(C(F)(F)F)ccc1-c1nnc(N[C@H]2CC[C@@H](O)C2)c2ccccc12 (single isomer, unassigned) [Example 35] |  |
| 17 |  | 122 | 45 | 6 (≈ 2.07 µg/mL) | 7.9 (≈ 22.8 µM) |  | OC[C@@H](O)CNc1nnc(-c2ccc(Cl)cc2O)c2ccccc12 [Example 5, (2S)-3-[[4-(4-chloro-2-hydroxy-phenyl)phthalazin-1-yl]amino]propane-1,2-diol] |  |
| 40 |  | 201 | 99 | 130 (≈ 51.4 µg/mL) | > 79.1 |  | OC[C@@H](O)CNc1nnc(-c2ccc(OC(F)(F)F)cc2O)c2ccccc12 [Example 6, (2S)-3-[[4-[2-hydroxy-4-(trifluoromethoxy)phenyl]phthalazin-1-yl]amino]propane-1,2-diol] |  |
| 23 |  | 207 | 82 | > 1000 | > 65.1 |  | Cc1ccc(-c2nnc(NC[C@H](O)CO)c3ccccc23)c(O)c1 [Example 11, (2S)-3-[[4-(2-hydroxy-4-methyl-phenyl)phthalazin-1-yl]amino]propane-1,2-diol] |  |
| 26 |  | 220 |  | 155 (≈ 61 µg/mL) | 14.7 (≈ 37.4 µM) |  | Cc1ccc2c(NC[C@H](O)CO)nnc(-c3ccc(C(F)(F)F)cc3O)c2c1 [Example 15, (2S)-3-[[4-[2-hydroxy-4-(trifluoromethyl)phenyl]-6-methyl-phthalazin-1-yl]amino]propane-1,2-diol] |  |
| 20 |  | 54 | 30 |  | 23.9 (≈ 61.4 µM) |  | Oc1cc(C(F)(F)F)ccc1-c1nnc(N[C@@H]2CC[C@@H](O)C2)c2ccccc12 [Example 16, 2-[4-[[(1R,3R)-3-hydroxycyclopentyl]amino]phthalazin-1-yl]-5-(trifluoromethyl)phenol] | 22000 |
| 86 |  | 290 | 169 |  | 27.5 (≈ 70.6 µM) |  | Oc1cc(C(F)(F)F)ccc1-c1nnc(N[C@H]2CC[C@H](O)C2)c2ccccc12 [Example 17, 2-[4-[[(1S,3S)-3-hydroxycyclopentyl]amino]phthalazin-1-yl]-5-(trifluoromethyl)phenol] |  |
| 5 |  | 26 | 20 | 171 (≈ 66.6 µg/mL) | 10.6 (≈ 27.2 µM) |  | Oc1cc(C(F)(F)F)ccc1-c1nnc(N[C@@H]2CCC[C@@H]2O)c2ccccc12 [Example 19, 2-[4-[[(1R,2S)-2-hydroxycyclopentyl]amino]phthalazin-1-yl]-5-(trifluoromethyl)phenol] | 23000 |
| 10 |  | 162 | 46 | 206 (≈ 80.2 µg/mL) | 8.6 (≈ 22.1 µM) |  | Oc1cc(C(F)(F)F)ccc1-c1nnc(N[C@@H]2CCC[C@H]2O)c2ccccc12 [Example 20, 2-[4-[[(1R,2R)-2-hydroxycyclopentyl]amino]phthalazin-1-yl]-5-(trifluoromethyl)phenol] |  |
| 8 |  | 105 | 36 | 71 (≈ 27.6 µg/mL) | 14.5 (≈ 37.2 µM) |  | Oc1cc(C(F)(F)F)ccc1-c1nnc(N[C@H]2CCC[C@H]2O)c2ccccc12 [Example 21, 2-[4-[[(1S,2R)-2-hydroxycyclopentyl]amino]phthalazin-1-yl]-5-(trifluoromethyl)phenol] | 19000 |
| 187 |  | 2410 |  | 172 (≈ 67 µg/mL) | 9.2 (≈ 23.6 µM) |  | Oc1cc(C(F)(F)F)ccc1-c1nnc(N[C@H]2CCC[C@@H]2O)c2ccccc12 [Example 22, 2-[4-[[(1S,2S)-2-hydroxycyclopentyl]amino]phthalazin-1-yl]-5-(trifluoromethyl)phenol] |  |
| 14 |  | 156 | 31 | 0.4 (≈ 0.161 µg/mL) | 4.4 (≈ 10.9 µM) |  | Oc1cc(C(F)(F)F)ccc1-c1nnc(N[C@@H]2CCCC[C@@H]2O)c2ccccc12 [Example 23, 2-[4-[[(1R,2S)-2-hydroxycyclohexyl]amino]phthalazin-1-yl]-5-(trifluoromethyl)phenol] | 21000 |
| 5 |  | 38 | 9 | 148 (≈ 59.7 µg/mL) | 7.9 (≈ 19.6 µM) |  | Oc1cc(C(F)(F)F)ccc1-c1nnc(N[C@@H]2CCCC[C@H]2O)c2ccccc12 [Example 24, 2-[4-[[(1R,2R)-2-hydroxycyclohexyl]amino]phthalazin-1-yl]-5-(trifluoromethyl)phenol] | 17000 |
| 602 |  | 1980 |  | 148 (≈ 59.7 µg/mL) | 8.3 (≈ 20.6 µM) |  | Oc1cc(C(F)(F)F)ccc1-c1nnc(N[C@H]2CCCC[C@@H]2O)c2ccccc12 [Example 26, 2-[4-[[(1S,2S)-2-hydroxycyclohexyl]amino]phthalazin-1-yl]-5-(trifluoromethyl)phenol] |  |
| 63 |  | 248 | 141 |  | 1.4 (≈ 3.73 µM) |  | Oc1cc(C(F)(F)F)ccc1-c1nnc(N[C@H]2C[C@H](O)C2)c2ccccc12 [Example 32, 2-(4-(((1r,3r)-3-hydroxycyclobutyl)amino)phthalazin-1-yl)-5-(trifluoromethyl)phenol] |  |
| 46 |  | 206 | 122 |  | 2.6 (≈ 6.93 µM) |  | Oc1cc(C(F)(F)F)ccc1-c1nnc(N[C@H]2C[C@@H](O)C2)c2ccccc12 [Example 33, 2-(4-(((1s,3s)-3-hydroxycyclobutyl)amino)phthalazin-1-yl)-5-(trifluoromethyl)phenol] |  |
|  |  | 339 | 32 |  |  |  | C[C@]1(O)C[C@@H](Nc2nnc(-c3ccc(C(F)(F)F)cc3O)c3ccccc23)C1 [Example 37, 2-(4-(((1s,3s)-3-hydroxy-3-methylcyclobutyl)amino)phthalazin-1-yl)-5-(trifluoromethyl)phenol] | 29000 |
| < 3 |  | 16 |  | 636 (≈ 236 µg/mL) | 40.1 (≈ 108 µM) |  | Oc1cc(Cl)ccc1-c1nnc(N[C@@H]2CCC[C@H](O)C2)c2cnccc12 [Example 44, 5-chloro-2-[4-[[(1R,3S)-3-hydroxycyclohexyl]amino]pyrido[3,4-d]pyridazin-1-yl]phenol] | > 40000 |
| 6 |  | 52 |  | 447 (≈ 168 µg/mL) | 51.9 (≈ 138 µM) |  | Oc1cc(C2CC2)ccc1-c1nnc(N[C@@H]2CCC[C@H](O)C2)c2cnccc12 [Example 52, 5-cyclopropyl-2-[4-[[(1R,3S)-3-hydroxycyclohexyl]amino]pyrido[3,4-d]pyridazin-1-yl]phenol] | 22000 |
| 2 |  | 11 |  |  | 42.4 (≈ 114 µM) |  | Oc1cc(Cl)ccc1-c1nnc(N[C@@H]2CCCC[C@H]2O)c2cnccc12 [Example 58, 5-chloro-2-[4-[[(1R,2R)-2-hydroxycyclohexyl]amino]pyrido[3,4-d]pyridazin-1-yl]phenol] | > 40000 |
|  |  | 373 | 114 | 11 (≈ 4.12 µg/mL) | 1.1 (≈ 2.93 µM) | 37 | C[C@]1(O)C[C@@H](Nc2nnc(-c3ccc(Cl)c(F)c3O)c3ccncc23)C1 [Example 65, 3-chloro-2-fluoro-6-(4-(((1s,3s)-3-hydroxy-3-methylcyclobutyl)amino)pyrido[3,4-d]pyridazin-1-yl)phenol] |  |
|  |  | 67 | 24 | 3 (≈ 1.23 µg/mL) | 1.5 (≈ 3.67 µM) | 8 | C[C@]1(O)C[C@@H](Nc2nnc(-c3c(O)cc(C(F)(F)F)cc3F)c3ccncc23)C1 [Example 67, 3-fluoro-2-(4-(((1s,3s)-3-hydroxy-3-methylcyclobutyl)amino)pyrido[3,4-d]pyridazin-1-yl)-5-(trifluoromethyl)phenol] |  |
|  |  | 301 | 149 | 29 (≈ 10.4 µg/mL) | 13.6 (≈ 38 µM) | 38 | C[C@]1(O)C[C@@H](Nc2nnc(-c3c(O)cc(F)cc3F)c3ccncc23)C1 [Example 69, 3,5-difluoro-2-(4-(((1s,3s)-3-hydroxy-3-methylcyclobutyl)amino)pyrido[3,4-d]pyridazin-1-yl)phenol] |  |
| 15 |  | 142 |  |  | 14.1 (≈ 38.9 µM) |  | CC(C)(O)CNc1nnc(-c2c(O)cc(Cl)cc2F)c2ccncc12 [Example 73, 5-chloro-3-fluoro-2-[4-[(2-hydroxy-2-methyl-propyl)amino]pyrido[3,4-d]pyridazin-1-yl]phenol] | > 40000 |
|  |  | 124 | 10 |  |  |  | Oc1cc(F)ccc1-c1nnc(N[C@@H]2CCCC[C@H]2O)c2cnccc12 [Example 75, 5-fluoro-2-(4-(((1R,2R)-2-hydroxycyclohexyl)amino)pyrido[3,4-d]pyridazin-1-yl)phenol] | > 40000 |
|  |  | 128 |  |  |  |  | Oc1cccc(F)c1-c1nnc(N[C@@H]2CCCC[C@H]2O)c2cnccc12 [Example 76, 3-fluoro-2-(4-(((1R,2R)-2-hydroxycyclohexyl)amino)pyrido[3,4-d]pyridazin-1-yl)phenol] | > 40000 |
| 27 |  | 88 |  | 20 (≈ 7.81 µg/mL) | > 78.1 |  | C[C@]1(O)C[C@H](Nc2nnc(-c3ccc(C(F)(F)F)cc3O)c3ccncc23)C1 [Example 84, 2-(4-(((1r,3r)-3-hydroxy-3-methylcyclobutyl)amino)pyrido[3,4-d]pyridazin-1-yl)-5-(trifluoromethyl)phenol] |  |
